Series [1] has as its system pLai RLuc reporter virus. Description: microbe, parasite or virus in culture. Type of series: cell-based, HIV. The following applies: Human immunodeficiency virus 1, 72 h. The method, boiled down:
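Read-out is Renilla luciferase after 72 h at 37 °C in MT-4 cells infected 2 h beforehand with pLai RLuc reporter virus; compounds diluted 1:3.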

A short description of series [2]: Cytotoxicity assay in MT-4 cells. As to conditions: human, uninfected MT-4 cells, 5 days incubation; read-out: CC50. Type of series: cell-based, human. The method, boiled down:
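For cytotoxicity, uninfected MT-4 cells were incubated with compounds 5 days at 37 °C, with 10 μM puromycin marking base cytotoxicity. Parallel plates used HIV-1 IIIB-infected (1:250 stock dilution) or mock cells with 5 μM AZT and no-drug controls. Read-out: CellTiter-Glo chemiluminescence.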

Series [3] deals with HIV-1 (IIIB). Put plainly: Antiviral assay in MT-4 cells (HIV MT-4 antiviral assay). Type of series: cell-based. As to conditions: Human immunodeficiency virus 1, IIIB, MT4, 120 h, HIV-1 (IIIB) in MT-4 cells, 5 days incubation; read-out: EC50. The gist of the method:
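Read-out is CellTiter-Glo chemiluminescence after 5-day culture at 37° C, giving protection of MT-4 cells from HIV-1 IIIB cytopathicity. Compounds tested in 1:3 dilution series in complete RPMI; controls were no drug, mock infection and 5 μM AZT.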

The mark [4] stands for this setting: read-out: Antiviral Serum Shift RLuc 50% HS, HS/CCM (RPMI media, 10% FBS, 50% HS, 1% P/S), 72-h incubation.
Setting [5] is: read-out: Antiviral Serum Shift RLuc CCM, CCM (RPMI media, 10% FBS, 1% P/S), 72-h incubation.

The structures appear in SMILES notation. Like-named read-outs stand apart in the source and are kept apart here.

As to `O=C(NCc1ccc(F)cc1)c1cn2c(c(O)c1=O)C(=O)N1CCCC[C@H]2C1` [Example 166, (7S)—N-(4-fluorobenzyl)-12-hydroxy-1,11-dioxo-1,4,5,6,7,11-hexahydro-3H-2,7-methanopyrido[1,2-a][1,4]diazonine-10-carboxamide], the EC50 amounted to 1.62 nM in series [1] (setting [4]), 0.583 nM in series [1] (setting [5]) and 2.5 nM in series [3]. Moreover, the CC50 – broadly, the concentration that lowers cell viability or growth by half – at 5 days in series [2] stood at 15600 nM.

`C[C@H]1CCC[C@@H]2CN1C(=O)c1c(O)c(=O)c(C(=O)NCc3ccc(F)cc3F)cn12` [Example 52-2, (3S, 7R)—N-(2,4-difluorobenzyl)-12-hydroxy-3-methyl-1,11-dioxo-1,4,5,6,7,11-hexahydro-3H-2,7-methanopyrido[1,2-a][1,4]diazonine-10-carboxamide]: the EC50 worked out at 2.19 nM in series [1] (setting [4]), 0.384 nM in series [1] (setting [5]) and 1.68 nM in series [3]. Moreover, in series [2], the cytotoxic concentration (CC50) at 5 days is 5840 nM.

As for `O=C(NCc1c(F)cc(F)cc1F)c1cn2c(c(O)c1=O)C(=O)N1CCC[C@@H]3C[C@]32C1` [Example 66-1, (1aR,11aR)—N-(2,4,6-trifluorobenzyl)-7-hydroxy-6,8-dioxo-1a,2,3,4,6,8-hexahydro-1H-5,11a-methanocyclopropa[h]pyrido[1,2-a][1,4]diazonine-9-carboxamide], the EC50 in series [1] (setting [4]) came out at 20.3 nM; in series [1] (setting [5]), 0.226 nM; in series [3], 1.76 nM. Also, the CC50 at 5 days in series [2] is 11100 nM.

As to `O=C(NCc1c(F)cc(F)cc1F)c1cn2c(c(O)c1=O)C(=O)N1CCCC(F)(F)[C@@H]2C1` (single isomer, unassigned) [Example 10-1], the EC50 is 1140 nM in series [1] (setting [4]), 1.02 nM in series [1] (setting [5]) and 3.2 nM in series [3]. For the same molecule, the CC50 at 5 days in series [2] was determined as 37100 nM.

Turning to `CC[C@]1(OC)CCCN2C[C@H]1n1cc(C(=O)NCc3c(F)cc(F)cc3F)c(=O)c(O)c1C2=O` [Example 100, (6S,7R)-6-ethyl-12-hydroxy-6-methoxy-1,11-dioxo-N-(2,4,6-trifluorobenzyl)-1,4,5,6,7,11-hexahydro-3H-2,7-methanopyrido[1,2-a][1,4]diazonine-10-carboxamide], the EC50 in series [1] (setting [4]) was 1.77 nM; in series [1] (setting [5]) it was 0.631 nM; in series [3], 1.58 nM. In addition, in series [2], the CC50 at 5 days is 9440 nM.

Take `C[C@H]1CC[C@H](F)[C@H]2CN1C(=O)c1c(O)c(=O)c(C(=O)NCc3c(F)cc(F)cc3F)cn12` [Example 157, (3S,6S,7R)-6-fluoro-12-hydroxy-3-methyl-1,11-dioxo-N-(2,4,6-trifluorobenzyl)-1,4,5,6,7,11-hexahydro-3H-2,7-methanopyrido[1,2-a][1,4]diazonine-10-carboxamide]: the EC50 in series [1] (setting [4]) was 5.75 nM; in series [1] (setting [5]) it was 1.61 nM; in series [3], 5.36 nM. Further, the CC50 at 5 days in series [2] came to 23700 nM.

`C[C@]1(F)CCCN2C[C@@H]1n1cc(C(=O)NCc3ccc(F)cc3F)c(=O)c(O)c1C2=O` (single isomer, unassigned) [Example 60-2]: the EC50 in series [1] (setting [4]) stood at 102 nM; in series [1] (setting [5]), 0.328 nM; in series [3], 1.97 nM. Further, the CC50 at 5 days in series [2] was 14000 nM.

As for `C[C@]1(O)CCCN2C[C@H]1n1cc(C(=O)NCc3ccc(F)cc3F)c(=O)c(O)c1C2=O` [Example 14-1, (6S,7R)—N-(2,4-difluorobenzyl)-6,12-dihydroxy-6-methyl-1,11-dioxo-1,4,5,6,7,11-hexahydro-3H-2,7-methanopyrido[1,2-a][1,4]diazonine-10-carboxamide], the EC50 in series [1] (setting [4]) was 1.88 nM; in series [1] (setting [5]), 0.79 nM; in series [3], 3 nM. Further, the CC50 at 5 days in series [2] worked out at 22200 nM.

In the case of `O=C(NCc1ccc(F)cc1F)c1cn2c(c(O)c1=O)C(=O)N1CCC[C@@H](F)[C@@H]2C1` [Example 172-1, (6R,7S)—N-(2,4-difluorobenzyl)-6-fluoro-12-hydroxy-1,11-dioxo-1,4,5,6,7,11-hexahydro-3H-2,7-methanopyrido[1,2-a][1,4]diazonine-10-carboxamide], the results for the EC50 in series [1] (setting [4]), in series [1] (setting [5]) and in series [3] were 42.7 nM, 0.689 nM and 2.4 nM, respectively. Further, the CC50 at 5 days in series [2] was 15600 nM.

For the molecule `O=C(NCc1c(F)cc(F)cc1F)c1cn2c(c(O)c1=O)C(=O)N1C[C@@H]3CC[C@@H](C3)[C@@H]2C1` [Example 41-2, (4R,7S,8R)-13-hydroxy-1,12-dioxo-N-(2,4,6-trifluorobenzyl)-1,3,4,5,6,7,8,12-octahydro-2,8:4,7-dimethanopyrido[1,2-a][1,4]diazecine-11-carboxamide], the EC50 is 0.968 nM in series [1] (setting [4]), 0.26 nM in series [1] (setting [5]) and 1.4 nM in series [3]. The CC50 at 5 days in series [2] worked out at 14300 nM.

Take `C[C@@H]1CC[C@@H](C)N2C[C@H]1n1cc(C(=O)NCc3c(F)cc(F)cc3F)c(=O)c(O)c1C2=O` [Example 151-2, (3R,6R,7S)-12-hydroxy-3,6-dimethyl-1,11-dioxo-N-(2,4,6-trifluorobenzyl)-1,4,5,6,7,11-hexahydro-3H-2,7-methanopyrido[1,2-a][1,4]diazonine-10-carboxamide]: the values for the EC50 in series [1] (setting [4]), in series [1] (setting [5]) and in series [3] were 7.22 nM, 0.44 nM and 1.75 nM, respectively. Also, the CC50 at 5 days in series [2] is 7200 nM.

Turning to `O=C(NCc1c(F)cc(F)cc1F)c1cn2c(c(O)c1=O)C(=O)N1C[C@@H]2CCc2c(F)cccc21` [Example 43-1, (12S)-1-fluoro-7-hydroxy-6,8-dioxo-N-(2,4,6-trifluorobenzyl)-6,8,13,14-tetrahydro-12H-5,12-methanobenzo[e]pyrido[1,2-a][1,4]diazonine-9-carboxamide], the EC50 in series [1] (setting [4]) came out at 147 nM; in series [1] (setting [5]) it was 4.35 nM; in series [3], 41.5 nM. Further, the CC50 at 5 days in series [2] turned out to be 8100 nM.

As to `O=C(NCc1c(F)cc(F)cc1F)c1cn2c(c(O)c1=O)C(=O)N1CC(F)CC[C@H]2C1` (stereo partly drawn) [Example 178, (7S)-4-fluoro-12-hydroxy-1,11-dioxo-N-(2,4,6-trifluorobenzyl)-1,4,5,6,7,11-hexahydro-3H-2,7-methanopyrido[1,2-a][1,4]diazonine-10-carboxamide], the figures for the EC50 in series [1] (setting [4]), in series [1] (setting [5]) and in series [3] were 6.56 nM, 0.43 nM and 2.14 nM, respectively. For the same molecule, the CC50 at 5 days in series [2] was 16700 nM.

Take `C[C@@H]1C=C[C@H](CF)N2C[C@H]1n1cc(C(=O)NCc3ccc(F)cc3F)c(=O)c(O)c1C2=O` [Example 192, (3R,6R,7S)—N-(2,4-difluorobenzyl)-3-(fluoromethyl)-12-hydroxy-6-methyl-1,11-dioxo-1,6,7,11-tetrahydro-3H-2,7-methanopyrido[1,2-a][1,4]diazonine-10-carboxamide]: the EC50 stood at 6.57 nM in series [1] (setting [4]), 0.252 nM in series [1] (setting [5]) and 0.913 nM in series [3]. Also, the cytotoxic concentration (CC50) at 5 days in series [2] is 5570 nM.

`C[C@]12CC(F)CCN(C1)C(=O)c1c(O)c(=O)c(C(=O)NCc3c(F)cc(F)cc3F)cn12` (single isomer, unassigned) [Example 112]: the values for the EC50 in series [1] (setting [4]), in series [1] (setting [5]) and in series [3] were 27.8 nM, 0.182 nM and 0.712 nM, respectively. For the same molecule, in series [2], the cytotoxic concentration (CC50) at 5 days is 8030 nM.

Turning to `O=C(NCc1ccc(F)cc1F)c1cn2c(c(O)c1=O)C(=O)N1C[C@@H]2CCC[C@@H]1C(F)F` [Example 189, (3R,7S)—N-(2,4-difluorobenzyl)-3-(difluoromethyl)-12-hydroxy-1,11-dioxo-1,4,5,6,7,11-hexahydro-3H-2,7-methanopyrido[1,2-a][1,4]diazonine-10-carboxamide], the figures for the EC50 in series [1] (setting [4]), in series [1] (setting [5]) and in series [3] were 6.06 nM, 0.411 nM and 1.56 nM, respectively. The CC50 at 5 days in series [2] is 12300 nM.

For the molecule `O=C(NCc1ccc(F)cc1F)c1cn2c(c(O)c1=O)C(=O)N1C[C@H]2COc2cc(F)c(F)cc21` [Example 92-2, (6S)—N-(2,4-difluorobenzyl)-10,11-difluoro-1-hydroxy-2,14-dioxo-2,6,7,14-tetrahydro-6,13-methanobenzo[b]pyrido[2,1-f][1,4,7]oxadiazonine-3-carboxamide], the values for the EC50 in series [1] (setting [4]), in series [1] (setting [5]) and in series [3] were 0.772 nM, 0.309 nM and 2.01 nM, respectively. Moreover, the CC50 at 5 days in series [2] was over 39300 nM.

As for `O=C(NCc1ccc(F)cc1F)c1cn2c(c(O)c1=O)C(=O)N1CCCOC[C@H]2C1` [Example 1-2, (R)-N-(2,4-difluorobenzyl)-13-hydroxy-1,12-dioxo-1,4,5,7,8,12-hexahydro-3H-2,8-methanopyrido[1,2-d][1,4,7]oxadiazecine-11-carboxamide], the EC50 came to 13.9 nM in series [1] (setting [4]), 1.37 nM in series [1] (setting [5]) and 5.7 nM in series [3]. For the same molecule, the half-maximal cytotoxic concentration (CC50) at 5 days in series [2] amounted to 20700 nM.

For `O=C(NCc1c(F)cc(F)cc1F)c1cn2c(c(O)c1=O)C(=O)N1CCCC[C@]2(CF)C1` [Example 163-2, (7R)—N-(2,4,6-trifluorobenzyl)-7-(fluoromethyl)-12-hydroxy-1,11-dioxo-1,4,5,6,7,11-hexahydro-3H-2,7-methanopyrido[1,2-a][1,4]diazonine-10-carboxamide], the EC50 in series [1] (setting [4]) was found to be 15.3 nM; in series [1] (setting [5]), 0.118 nM; in series [3] it was 2.29 nM. The CC50 at 5 days in series [2] was 13800 nM.

The values above are taken from patent US12227520B2 (priority 2019, dated 2025).
